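Tested at 5 concentrations; 48 h exposure; 96-well plates; endpoints linearly interpolated, else capped at highest concentration. GI50 marks 50% less growth. The concentration for full growth arrest is given as TGI.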

Some test systems named below: 786-0 renal; A549 NSCLC; MOLT-4 leukemia; NCI-H460 lung; RXF 393 renal; SK-MEL-2 melanoma; UACC-62 melanoma.
Assay in all cases: NCI tumour cell line growth inhibition, 48 h

In the case of `C=CCc1c2c(c(OC)c3ccoc13)C(=O)/C(=C/c1ccccc1OC)O2`, the GI50 in the assay on 786-0 renal is 6.28 µM; in the assay on A549 NSCLC it was 4.12 µM; with MOLT-4 leukemia it was 3.52 µM; with NCI-H460 lung, 3.46 µM; with RXF 393 renal, 2.47 µM; in the assay on SK-MEL-2 melanoma it was 6.06 µM. Moreover, the GI50 with UACC-62 melanoma was 4.14 µM. The TGI in the assay on 786-0 renal was more than 100 µM; in the assay with A549 NSCLC it was more than 100 µM; in the assay with MOLT-4 leukemia, more than 100 µM; in the assay on NCI-H460 lung, more than 100 µM; with RXF 393 renal, 6.92 µM; with SK-MEL-2 melanoma, more than 100 µM. In the assay on UACC-62 melanoma, this compound returned a TGI of 58.4 µM.

With `COc1cc(C2c3cc4c(cc3OC(N3CCCC3)C2C)OCO4)cc(OC)c1OC` (stereo not drawn), the TGI with 786-0 renal was 30 µM; with A549 NSCLC, 50.4 µM; in the assay on MOLT-4 leukemia, more than 18.6 µM; in the assay with NCI-H460 lung, 14.5 µM; with RXF 393 renal, 2.41 µM; in the assay on SK-MEL-2 melanoma, 7.56 µM. Moreover, in the assay with UACC-62 melanoma, the TGI amounted to 20.7 µM.

Turning to `CN(C)S(=O)(=O)c1ccc(NC(=O)COC(=O)c2ccc(S(=O)(=O)N3CCCCC3)cc2)cc1`, the GI50 in the assay with 786-0 renal, with A549 NSCLC, in the assay with MOLT-4 leukemia, in the assay on NCI-H460 lung, in the assay with RXF 393 renal and in the assay on SK-MEL-2 melanoma was more than 100 µM each time. The GI50 with UACC-62 melanoma was more than 100 µM. Also, the TGI in the assay on 786-0 renal, in the assay with A549 NSCLC, in the assay on MOLT-4 leukemia, with NCI-H460 lung, in the assay on RXF 393 renal and with SK-MEL-2 melanoma was more than 100 µM throughout. In the assay with UACC-62 melanoma, this compound registered a TGI of more than 100 µM.

For `CC/C=C\C=C/C(=O)N/C=C/CC1Cc2cccc(O)c2C(=O)O1` (stereo not drawn), the GI50 with 786-0 renal was 25.2 µM; in the assay with A549 NSCLC it was 34.9 µM; in the assay with MOLT-4 leukemia, 13.4 µM; with NCI-H460 lung it was 24.3 µM; in the assay with RXF 393 renal it was 16.1 µM; in the assay with SK-MEL-2 melanoma it was 22.9 µM. Also, the GI50 in the assay on UACC-62 melanoma is 22.6 µM. For the same compound, the TGI was 73.8 µM with 786-0 renal; more than 100 µM in the assay on A549 NSCLC; 42.2 µM with MOLT-4 leukemia; 62.1 µM in the assay with NCI-H460 lung; 35.8 µM in the assay with RXF 393 renal; more than 100 µM with SK-MEL-2 melanoma. In the assay on UACC-62 melanoma, this compound registered a TGI of more than 100 µM.

With `CCCN=Cc1cc(Cc2ccc(O)c(C=NCCC)c2)ccc1O`, the TGI in the assay with 786-0 renal was found to be 32.1 µM; in the assay with A549 NSCLC, 32.3 µM; in the assay with MOLT-4 leukemia it was 3.71 µM; with NCI-H460 lung, 51.9 µM; in the assay with RXF 393 renal, 37.7 µM; in the assay with SK-MEL-2 melanoma it was 9.59 µM. In the assay with UACC-62 melanoma, this compound registered a TGI of 22.7 µM.

For `COC1(C(=O)N[C@@H](C)c2ccc(-n3cc(F)cn3)nc2)CCC(c2nc(C)cc(Nc3cc(C)[nH]n3)n2)CC1` (stereo partly drawn), the GI50 in the assay on 786-0 renal was 1.33 µM; in the assay with A549 NSCLC it was 1.78 µM; in the assay on MOLT-4 leukemia it was 3.48 µM; in the assay with NCI-H460 lung it was 5.2 µM; in the assay on RXF 393 renal, 0.177 µM; in the assay on SK-MEL-2 melanoma, 6.82 µM. In addition, the GI50 in the assay on UACC-62 melanoma was 4.14 µM. The TGI was 8 µM in the assay on 786-0 renal; 16.3 µM in the assay with A549 NSCLC; more than 100 µM in the assay with MOLT-4 leukemia; 18.5 µM in the assay with NCI-H460 lung; 0.665 µM with RXF 393 renal; 23.2 µM with SK-MEL-2 melanoma. The TGI in the assay on UACC-62 melanoma was found to be 17.4 µM.

As to `COc1ccc(N2C(C)=C(C#N)C34C(=O)N(c5ccccc5)C(=O)C3=C(O)C=CC24O)cc1` (stereo not drawn), the GI50 in the assay on 786-0 renal was 19 µM; in the assay on A549 NSCLC, 26.3 µM; in the assay on MOLT-4 leukemia it was 21.2 µM; in the assay with NCI-H460 lung, 14.6 µM; in the assay on RXF 393 renal, 3.15 µM; in the assay with SK-MEL-2 melanoma it was 19.5 µM. Moreover, in the assay on UACC-62 melanoma, the GI50 is 5.06 µM. Also, the TGI was 65.8 µM in the assay on 786-0 renal; more than 100 µM in the assay with A549 NSCLC; 71.7 µM in the assay on MOLT-4 leukemia; 61.4 µM in the assay on NCI-H460 lung; 14.7 µM with RXF 393 renal; 46.3 µM in the assay on SK-MEL-2 melanoma. The TGI in the assay with UACC-62 melanoma was determined as 18.7 µM.

For `Cc1ccc2c(ccc3c[n+]4c5ccccc5ccc4n32)c1`, the GI50 with 786-0 renal was 2.56 µM; with A549 NSCLC it was 0.663 µM; with MOLT-4 leukemia, 1.65 µM; in the assay on NCI-H460 lung, 1.2 µM; in the assay on RXF 393 renal it was 2.52 µM; with SK-MEL-2 melanoma, 1.64 µM. Also, the GI50 in the assay with UACC-62 melanoma is 0.795 µM. The TGI with 786-0 renal worked out at 14.8 µM; with A549 NSCLC, 13.7 µM; in the assay with MOLT-4 leukemia it was 9.65 µM; with NCI-H460 lung it was 5.41 µM; in the assay with RXF 393 renal it was 8.81 µM; in the assay with SK-MEL-2 melanoma, 3.9 µM. The TGI in the assay on UACC-62 melanoma turned out to be 2.32 µM.

For the compound `Cc1ccc(/C=C2\CN(C(=O)OC(C)(C)C)C/C(=C\c3ccc(C)cc3)C2=O)cc1`, the GI50 in the assay on 786-0 renal was 0.445 µM; in the assay with MOLT-4 leukemia, 0.805 µM; in the assay with NCI-H460 lung, 0.124 µM; with RXF 393 renal it was 0.0625 µM; in the assay on UACC-62 melanoma, 0.0788 µM. The TGI with 786-0 renal was more than 100 µM; in the assay on A549 NSCLC it was more than 100 µM; in the assay on MOLT-4 leukemia, more than 41.9 µM; with NCI-H460 lung it was 10.7 µM; in the assay on RXF 393 renal it was 4.36 µM; in the assay with SK-MEL-2 melanoma, more than 100 µM. In addition, the TGI in the assay on UACC-62 melanoma was more than 100 µM.

On to `CN1CCN(CCc2cccc(C(=O)c3cnn(-c4ccc(F)cc4)c3N)c2)CC1`, for which the GI50 in the assay with 786-0 renal, in the assay with A549 NSCLC, in the assay on MOLT-4 leukemia, with NCI-H460 lung, in the assay on RXF 393 renal and with SK-MEL-2 melanoma was more than 25 µM each time. The GI50 in the assay on UACC-62 melanoma was more than 25 µM. The TGI in the assay on 786-0 renal, in the assay with A549 NSCLC, in the assay with MOLT-4 leukemia, in the assay with NCI-H460 lung, in the assay with RXF 393 renal and in the assay with SK-MEL-2 melanoma was more than 25 µM each time. Besides, in the assay with UACC-62 melanoma, the TGI was more than 25 µM.

For the compound `Cc1[c-]onc1C.Cc1[c-]onc1C.[Ag].[Ag].[NH-]S(=O)(=O)c1ccc(N=Nc2cc(N=Nc3ccc(S([NH-])(=O)=O)cc3)c3c(NC(=O)C(Cl)Cl)cccc3c2OC(=O)C(Cl)Cl)cc1`, the GI50 with 786-0 renal was 8.87 µM; with A549 NSCLC, 11 µM; in the assay with MOLT-4 leukemia, 8.18 µM; with NCI-H460 lung, 6.53 µM; in the assay on RXF 393 renal, 6.47 µM; with SK-MEL-2 melanoma, 6.89 µM. Besides, the GI50 in the assay with UACC-62 melanoma was 7.36 µM. In addition, the TGI in the assay with 786-0 renal was 16.4 µM; in the assay on A549 NSCLC it was more than 50 µM; in the assay with MOLT-4 leukemia it was 28.1 µM; in the assay on NCI-H460 lung it was 18.1 µM; in the assay with RXF 393 renal it was 15.6 µM; in the assay on SK-MEL-2 melanoma, 15.9 µM. The TGI with UACC-62 melanoma was determined as 14.5 µM.

For the origin of these results see PubChem BioAssay (NCI).
